Reference: paper PMC7961093, “Insights into the dual cleavage activity of the GH16 laminarinase enzyme class on β-1,3 and β-1,4 glycosidic bonds” (The Journal of Biological Chemistry, 2021)

How the values were obtained:
SCLam = molecular target: T1, SCLam (soil metagenome, UniProt Z9RH19THY1, E147S); assay: isothermal titration calorimetry; format: binding; settings: 20 mM sodium phosphate pH 6.5, 20 °C
T1 construct: monomer in asymmetric unit
T1 sequence (Z9RH19THY1 4-269 E147S): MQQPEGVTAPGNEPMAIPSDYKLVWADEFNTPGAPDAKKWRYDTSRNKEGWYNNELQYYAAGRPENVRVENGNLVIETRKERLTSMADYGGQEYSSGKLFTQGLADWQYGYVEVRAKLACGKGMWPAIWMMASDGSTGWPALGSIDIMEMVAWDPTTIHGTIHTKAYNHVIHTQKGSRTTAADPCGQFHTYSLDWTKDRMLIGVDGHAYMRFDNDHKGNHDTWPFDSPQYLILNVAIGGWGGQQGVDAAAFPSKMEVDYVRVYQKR
Text: isothermal titration calorimetry on SCLam

TpLam = molecular target: T2, TpLam (Thermotoga petrophila, UniProt A5IL44); assay: capillary zone electrophoresis of hydrolysis products; format: biochemical; settings: 5 mM substrate, 10 μM enzyme, 70 °C, overnight
T2 construct: gene Tpet_0899; purified preparation
T2 sequence (A5IL44 18-641): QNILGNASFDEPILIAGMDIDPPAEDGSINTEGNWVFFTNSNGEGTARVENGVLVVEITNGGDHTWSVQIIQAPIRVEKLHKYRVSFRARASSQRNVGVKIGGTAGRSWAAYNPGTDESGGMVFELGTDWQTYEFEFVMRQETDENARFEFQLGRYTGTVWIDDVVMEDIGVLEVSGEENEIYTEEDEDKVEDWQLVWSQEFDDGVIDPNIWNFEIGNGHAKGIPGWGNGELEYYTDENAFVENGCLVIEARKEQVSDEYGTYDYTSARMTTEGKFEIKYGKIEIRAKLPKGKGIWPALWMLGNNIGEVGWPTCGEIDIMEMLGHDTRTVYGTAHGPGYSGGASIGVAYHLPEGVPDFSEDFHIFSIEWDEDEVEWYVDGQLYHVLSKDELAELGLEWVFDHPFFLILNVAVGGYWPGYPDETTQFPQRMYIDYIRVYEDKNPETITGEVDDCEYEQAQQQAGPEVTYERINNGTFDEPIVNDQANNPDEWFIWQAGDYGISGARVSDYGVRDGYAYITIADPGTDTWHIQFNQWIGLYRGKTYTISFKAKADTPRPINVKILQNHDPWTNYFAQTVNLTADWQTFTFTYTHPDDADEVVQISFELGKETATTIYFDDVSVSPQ

[1] = sequential binding model, site 1 (negative subsites)

Ka × 10^4 (M^-1) (SCLam; single-site model)	Ka × 10^4 (M^-1) (SCLam; [1])	SMILES	further results
66.7 (±1.4) × 10^4	–	OC[C@H]1O[C@@H](O[C@H]2[C@H](O)[C@@H](O)[C@H](O[C@H]3[C@H](O)[C@@H](O)[C@H](O[C@H]4[C@H](O)[C@@H](CO)OC(O)[C@@H]4O)O[C@@H]3CO)O[C@@H]2CO)[C@H](O)[C@@H](O)[C@@H]1O (stereo partly drawn) [BGB, 1,3-β-D-cellotriosyl-glucose]	–
0.59 (±0.07) × 10^4	–	OC[C@H]1O[C@@H](O[C@H]2[C@H](O)[C@@H](O)[C@H](O[C@@H]3[C@@H](O)[C@H](O[C@H]4[C@H](O)[C@@H](O)C(O)O[C@@H]4CO)O[C@H](CO)[C@H]3O)O[C@@H]2CO)[C@H](O)[C@@H](O)[C@@H]1O (stereo partly drawn) [BGC, 1,3-β-D-cellobiosyl-cellobiose]	–
–	–	OC[C@H]1O[C@@H](O[C@H]2[C@H](O)[C@@H](O)[C@H](O[C@H]3[C@H](O)[C@@H](O)[C@H](O[C@H]4[C@H](O)[C@@H](O)[C@H](O[C@H]5[C@H](O)[C@@H](O)C(O)O[C@@H]5CO)O[C@@H]4CO)O[C@@H]3CO)O[C@@H]2CO)[C@H](O)[C@@H](O)[C@@H]1O (some centres unmarked) [C5, cellopentaose]	capillary zone electrophoresis of hydrolysis products (TpLam): we also evaluated the activity of the TpLam from Thermotoga petrophila
–	9.7 (±0.56) × 10^4	OC[C@H]1O[C@@H](O[C@H]2[C@H](O)[C@@H](O)[C@H](O[C@H]3[C@H](O)[C@@H](O)[C@H](O[C@H]4[C@H](O)[C@@H](O)[C@H](O[C@H]5[C@H](O)[C@@H](O)[C@H](O[C@H]6[C@H](O)[C@@H](O)C(O)O[C@@H]6CO)O[C@@H]5CO)O[C@@H]4CO)O[C@@H]3CO)O[C@@H]2CO)[C@H](O)[C@@H](O)[C@@H]1O (some centres unmarked) [C6, cellohexaose]	–
–	17.8 (±2.2) × 10^4	OC[C@H]1O[C@@H](O[C@@H]2[C@@H](O)[C@H](O[C@@H]3[C@@H](O)[C@H](O[C@@H]4[C@@H](O)[C@H](O[C@@H]5[C@@H](O)[C@H](O[C@H]6[C@H](O)[C@@H](CO)OC(O)[C@@H]6O)O[C@H](CO)[C@H]5O)O[C@H](CO)[C@H]4O)O[C@H](CO)[C@H]3O)O[C@H](CO)[C@H]2O)[C@H](O)[C@@H](O)[C@@H]1O (some centres unmarked) [L6, laminarihexaose]	–
